Species on record: Rattus norvegicus
Test: Open TG-GATES - Regimen: Daily Repeat
Assay type: toxicity, organism-based, Sprague-Dawley
Parameters: regimen Daily Repeat, gender Male, age 6 weeks
Details: in vivo, po, route gavage; for APTT / Bas / Eos / Fbg / Hb / Ht / Lym / MCH / MCHC / MCV / Mono / Neu / PT / Plat / RBC / Ret / WBC: tissue Blood; for KIDNEY_L / KIDNEY_R / KIDNEY_TOTAL: tissue Kidney; for LIVER: tissue Liver; for ALP / ALT / AST / BUN / CRE / DBIL / GLC / K / Na / PL / RALB / TBIL / TC / TG / TP / gamma-GTP: tissue Plasma
[1] = 0 mg/kg, 72 h, dose level Control, time 3 day
[2] = 0 mg/kg, […], dose level Control, time 7 day
[3] = 0 mg/kg, […], dose level Control, time 14 day
[4] = 0 mg/kg, […], dose level Control, time 28 day
[5] = 25 mg/kg, 72 h, dose level Low, time 3 day
[6] = 25 mg/kg, […], dose level Low, time 7 day
[7] = 25 mg/kg, […], dose level Low, time 14 day
[8] = 25 mg/kg, […], dose level Low, time 28 day

## CN1C(=O)CN=C(c2ccccc2)c2cc(Cl)ccc21 [DIAZEPAM]
[1]
  TERMINAL_BW: 246.7 g
  APTT: 16.3 s
  Bas: 0%
  Eos: 1.2%
  Fbg: 235.6 mg/dL
  Hb: 13.5 g/dL
  Ht: 40.6%
  Lym: 78.6%
  MCH: 21.4 pg
  MCHC: 33.2%
  MCV: 64.4 fL
  Mono: 6.4%
  Neu: 14.2%
  PT: 12 s
  Plat: 114.2 x10_4/uL
  RBC: 630.6 x10_4/ul
  Ret: 6.6%
  WBC: 104 x10_2/uL
  KIDNEY_L: 1.1 g
  KIDNEY_R: 1.1 g
  KIDNEY_TOTAL: 2.2 g
  LIVER: 12.5 g
  ALP: 817.2 IU/L
  ALT: 34.2 IU/L
  AST: 59.4 IU/L
  BUN: 17.2 mg/dL
  CRE: 0.5 mg/dL
  DBIL: 0.006 mg/dL
  GLC: 198.8 mg/dL
  K: 5 meq/L
  Na: 138.9 meq/L
  PL: 154 mg/dL
  RALB: 4 g/dL
  TBIL: 0.3 mg/dL
  TC: 78.4 mg/dL
  TG: 115.4 mg/dL
  TP: 6 g/dL
  gamma-GTP: 1.6 IU/L
[2]
  TERMINAL_BW: 289.2 g
  APTT: 16 s
  Bas: 0%
  Eos: 1%
  Fbg: 237.8 mg/dL
  Hb: 14.2 g/dL
  Ht: 42.8%
  Lym: 79.2%
  MCH: 21.8 pg
  MCHC: 33.2%
  MCV: 65.6 fL
  Mono: 9.4%
  Neu: 11%
  PT: 11.4 s
  Plat: 106.5 x10_4/uL
  RBC: 653.4 x10_4/ul
  Ret: 6.3%
  WBC: 120.8 x10_2/uL
  KIDNEY_L: 1.2 g
  KIDNEY_R: 1.3 g
  KIDNEY_TOTAL: 2.5 g
  LIVER: 14.8 g
  ALP: 843.2 IU/L
  ALT: 37.2 IU/L
  AST: 60.4 IU/L
  BUN: 17.8 mg/dL
  CRE: 0.5 mg/dL
  DBIL: 0.02 mg/dL
  GLC: 188.8 mg/dL
  K: 5.1 meq/L
  Na: 137.6 meq/L
  PL: 184.8 mg/dL
  RALB: 4.2 g/dL
  TBIL: 0.3 mg/dL
  TC: 92.8 mg/dL
  TG: 164.6 mg/dL
  TP: 6.4 g/dL
  gamma-GTP: 1.6 IU/L
[3]
  TERMINAL_BW: 333.2 g
  APTT: 16.4 s
  Bas: 0%
  Eos: 0.6%
  Fbg: 234 mg/dL
  Hb: 15.2 g/dL
  Ht: 45.6%
  Lym: 80.6%
  MCH: 20.9 pg
  MCHC: 33.3%
  MCV: 62.9 fL
  Mono: 3.6%
  Neu: 14.8%
  PT: 12 s
  Plat: 92.8 x10_4/uL
  RBC: 725.4 x10_4/ul
  Ret: 4.5%
  WBC: 149.8 x10_2/uL
  KIDNEY_L: 1.3 g
  KIDNEY_R: 1.3 g
  KIDNEY_TOTAL: 2.7 g
  LIVER: 14.8 g
  ALP: 714 IU/L
  ALT: 37.4 IU/L
  AST: 68.2 IU/L
  BUN: 19.4 mg/dL
  CRE: 0.6 mg/dL
  DBIL: 0.01 mg/dL
  GLC: 183.2 mg/dL
  K: 4.6 meq/L
  Na: 141.1 meq/L
  PL: 149.2 mg/dL
  RALB: 4 g/dL
  TBIL: 0.3 mg/dL
  TC: 72 mg/dL
  TG: 131.8 mg/dL
  TP: 6.4 g/dL
  gamma-GTP: 1 IU/L
[4]
  TERMINAL_BW: 416.1 g
  APTT: 17 s
  Bas: 0%
  Eos: 1.2%
  Fbg: 227.2 mg/dL
  Hb: 15.8 g/dL
  Ht: 47.5%
  Lym: 83.6%
  MCH: 19 pg
  MCHC: 33.3%
  MCV: 57 fL
  Mono: 6.4%
  Neu: 9%
  PT: 12.3 s
  Plat: 102.6 x10_4/uL
  RBC: 833 x10_4/ul
  Ret: 2.2%
  WBC: 146.4 x10_2/uL
  KIDNEY_L: 1.4 g
  KIDNEY_R: 1.5 g
  KIDNEY_TOTAL: 2.9 g
  LIVER: 17.1 g
  ALP: 591.2 IU/L
  ALT: 28.4 IU/L
  AST: 54.2 IU/L
  BUN: 19.8 mg/dL
  CRE: 0.7 mg/dL
  DBIL: 0.002 mg/dL
  GLC: 182.8 mg/dL
  K: 4.5 meq/L
  Na: 139.4 meq/L
  PL: 147.8 mg/dL
  RALB: 4.1 g/dL
  TBIL: 0.2 mg/dL
  TC: 67.2 mg/dL
  TG: 165.6 mg/dL
  TP: 6.6 g/dL
  gamma-GTP: 1.2 IU/L
[5]
  TERMINAL_BW: 248 g
  APTT: 16.5 s
  Bas: 0%
  Eos: 1%
  Fbg: 230 mg/dL
  Hb: 13.9 g/dL
  Ht: 42%
  Lym: 84%
  MCH: 21.5 pg
  MCHC: 33.2%
  MCV: 64.8 fL
  Mono: 3.8%
  Neu: 11.2%
  PT: 12 s
  Plat: 100.7 x10_4/uL
  RBC: 647.8 x10_4/ul
  Ret: 6.3%
  WBC: 155.1 x10_2/uL
  KIDNEY_L: 1.1 g
  KIDNEY_R: 1.1 g
  KIDNEY_TOTAL: 2.1 g
  LIVER: 12 g
  ALP: 908.6 IU/L
  ALT: 37.4 IU/L
  AST: 63.4 IU/L
  BUN: 16.8 mg/dL
  CRE: 0.6 mg/dL
  DBIL: 0.016 mg/dL
  GLC: 193.2 mg/dL
  K: 4.7 meq/L
  Na: 139.3 meq/L
  PL: 150.4 mg/dL
  RALB: 4.1 g/dL
  TBIL: 0.3 mg/dL
  TC: 81.4 mg/dL
  TG: 76.4 mg/dL
  TP: 6 g/dL
  gamma-GTP: 1 IU/L
[6]
  TERMINAL_BW: 279.2 g
  APTT: 16.6 s
  Bas: 0%
  Eos: 0.8%
  Fbg: 223 mg/dL
  Hb: 14.2 g/dL
  Ht: 42.5%
  Lym: 79.6%
  MCH: 20.8 pg
  MCHC: 33.4%
  MCV: 62.3 fL
  Mono: 3.8%
  Neu: 16.2%
  PT: 11.4 s
  Plat: 116.1 x10_4/uL
  RBC: 681.6 x10_4/ul
  Ret: 5.7%
  WBC: 115.6 x10_2/uL
  KIDNEY_L: 1.2 g
  KIDNEY_R: 1.2 g
  KIDNEY_TOTAL: 2.4 g
  LIVER: 14.1 g
  ALP: 886.2 IU/L
  ALT: 33.6 IU/L
  AST: 62 IU/L
  BUN: 18.8 mg/dL
  CRE: 0.5 mg/dL
  DBIL: 0.024 mg/dL
  GLC: 188.2 mg/dL
  K: 4.9 meq/L
  Na: 137.7 meq/L
  PL: 170.4 mg/dL
  RALB: 4.1 g/dL
  TBIL: 0.3 mg/dL
  TC: 77.8 mg/dL
  TG: 168.6 mg/dL
  TP: 6.1 g/dL
  gamma-GTP: 1.2 IU/L
[7]
  TERMINAL_BW: 331.4 g
  APTT: 16.6 s
  Bas: 0%
  Eos: 0.8%
  Fbg: 225.8 mg/dL
  Hb: 14.8 g/dL
  Ht: 44.6%
  Lym: 83.2%
  MCH: 20.1 pg
  MCHC: 33.3%
  MCV: 60.3 fL
  Mono: 5.6%
  Neu: 10.6%
  PT: 12 s
  Plat: 110.6 x10_4/uL
  RBC: 740 x10_4/ul
  Ret: 4.1%
  WBC: 120.7 x10_2/uL
  KIDNEY_L: 1.3 g
  KIDNEY_R: 1.3 g
  KIDNEY_TOTAL: 2.6 g
  LIVER: 14.8 g
  ALP: 848.8 IU/L
  ALT: 34.4 IU/L
  AST: 64.4 IU/L
  BUN: 18.4 mg/dL
  CRE: 0.6 mg/dL
  DBIL: 0.002 mg/dL
  GLC: 190.2 mg/dL
  K: 4.4 meq/L
  Na: 140.3 meq/L
  PL: 148.2 mg/dL
  RALB: 4 g/dL
  TBIL: 0.3 mg/dL
  TC: 66.4 mg/dL
  TG: 154.8 mg/dL
  TP: 6.1 g/dL
  gamma-GTP: 0.8 IU/L
[8]
  TERMINAL_BW: 411.1 g
  APTT: 18 s
  Bas: 0%
  Eos: 0.6%
  Fbg: 223.8 mg/dL
  Hb: 15.8 g/dL
  Ht: 47.2%
  Lym: 83.4%
  MCH: 19.3 pg
  MCHC: 33.4%
  MCV: 57.7 fL
  Mono: 3.6%
  Neu: 12%
  PT: 12.1 s
  Plat: 102.8 x10_4/uL
  RBC: 818.6 x10_4/ul
  Ret: 2.7%
  WBC: 154.6 x10_2/uL
  KIDNEY_L: 1.4 g
  KIDNEY_R: 1.4 g
  KIDNEY_TOTAL: 2.8 g
  LIVER: 16.9 g
  ALP: 483.4 IU/L
  ALT: 30.6 IU/L
  AST: 60.4 IU/L
  BUN: 19.8 mg/dL
  CRE: 0.6 mg/dL
  DBIL: 0.016 mg/dL
  GLC: 201.4 mg/dL
  K: 4.3 meq/L
  Na: 140.7 meq/L
  PL: 135.6 mg/dL
  RALB: 4 g/dL
  TBIL: 0.3 mg/dL
  TC: 63.6 mg/dL
  TG: 134.2 mg/dL
  TP: 6.5 g/dL
  gamma-GTP: 1 IU/L
